Structures can show the parent of a compound that is named as a salt. Where two headings read alike, the source gives them in different places.
Experiments:
Type in all cases: cell-based
DU145 = assay: Tumor cell growth inhibition, Trypan blue exclusion, DU145; settings: Homo sapiens, cell viability after 96 hours vs vehicle (DMSO)
Description: (§1) The effect of Compounds of Formula I on tumor cells of prostate, colon, lung, pancreatic, brain, renal, gastrointestinal, epidermal, lymphocytic, ovary and breast origin was examined by utilizing a variety of cancer cell lines (listed in Table 6). Cells were plated at density levels of 1.0×10^5 cells per well in six-well plates. Cell cultures were maintained at 37° C. in a humidified atmosphere of 5% CO2.
(§2) In addition, DU-145 cells were treated with three additional compounds of the invention: (E)-4-(3-(5-((2,4,6-trimethoxystyrylsulfonyl)methyl)-2-methoxyphenoxy)propyl)morpholine; (E)-5-((2,4,6-trimethoxystyrylsulfonyl)methyl)-2-methoxyphenyl 2-(dimethylamino)acetate; and (E)-5-((2,4,6-trimethoxystyrylsulfonyl)methyl)-2-methoxyphenyl 4-methylbenzenesulfonate, the structures of which are shown in Table 7.
(§3) Values are reported as the GI50, i.e., the concentration (μM) required for 50% growth inhibition as compared to vehicle (DMSO) treated cells. The notations “ER+” and “ER−” designate breast cancer lines that are responsive and non-responsive to estrogen, respectively. The notations “AR+” and “AR−” designate prostate cancer lines that are responsive and non-responsive to androgens, respectively. […] For cell lines designated by “*”, the dose response curve for the compound (E)-5-((2,4,6-trimethoxystyrylsulfonyl)methyl)-2-methoxyphenol (Example 1) is set forth in FIG. 1.

2008/17/4 = assay: Tumor cell growth inhibition, Trypan blue exclusion, 2008/17/4; settings: 2008/17/4, Resistant Ovarian; cell viability after 96 hours vs vehicle (DMSO)
Description: as §1
(§4) Cells of 36 different cell lines were treated with (E)-5-((2,4,6-trimethoxystyrylsulfonyl)methyl)-2-methoxyphenol (Example 1) or (E)-5-((2,4,6-trimethoxystyrylsulfonyl)methyl)-2-methoxy-phenyl dihydrogen phosphate disodium salt (Example 5) at doses ranging from 2 nM to 10 nM concentration, and cell viability was determined after 96 hours by the Trypan blue exclusion method. In addition, DU-145 cells were treated with three additional compounds of the invention: (E)-4-(3-(5-((2,4,6-trimethoxystyrylsulfonyl)methyl)-2-methoxyphenoxy)propyl)morpholine; (E)-5-((2,4,6-trimethoxystyrylsulfonyl)methyl)-2-methoxyphenyl 2-(dimethylamino)acetate; and (E)-5-((2,4,6-trimethoxystyrylsulfonyl)methyl)-2-methoxyphenyl 4-methylbenzenesulfonate, the structures of which are shown in Table 7.
(§5) Values are reported as the GI50, i.e., the concentration (μM) required for 50% growth inhibition as compared to vehicle (DMSO) treated cells. […]

Namalwa = assay: Tumor cell growth inhibition, Trypan blue exclusion, Namalwa; settings: Burkitt's Lymphoma (B-Cell), cell viability after 96 hours vs vehicle (DMSO)
Description: as §1, §4, §5

PC-3 = assay: Tumor cell growth inhibition, Trypan blue exclusion, PC-3; settings: Homo sapiens; PC-3, Prostate; cell viability after 96 hours vs vehicle (DMSO)
Description: as §1, §4, §5

HCT-15 = assay: Tumor cell growth inhibition, Trypan blue exclusion, HCT-15; settings: Homo sapiens; HCT-15, Colo-Rectal; cell viability after 96 hours vs vehicle (DMSO)
Description: as §1, §4, §5

Daudi = assay: Tumor cell growth inhibition, Trypan blue exclusion, Daudi; settings: Homo sapiens, Burkitt's Lymphoma (B-Cell), cell viability after 96 hours vs vehicle (DMSO)
Description: as §1, §4, §5

AGS = assay: Tumor cell growth inhibition, Trypan blue exclusion, AGS; settings: Homo sapiens, Gastric, cell viability after 96 hours vs vehicle (DMSO)
Description: as §1, §4, §5

OV-CAR-3 = assay: Tumor cell growth inhibition, Trypan blue exclusion, OV-CAR-3; settings: Homo sapiens, OVCAR-3; OV-CAR-3, Ovarian; cell viability after 96 hours vs vehicle (DMSO)
Description: as §1, §4, §5

BT20 = assay: Tumor cell growth inhibition, Trypan blue exclusion, BT20; settings: Homo sapiens, BT-20; BT20, Breast (Er−); cell viability after 96 hours vs vehicle (DMSO)
Description: as §1, §2, §3

A549 = assay: Tumor cell growth inhibition, Trypan blue exclusion, A549; settings: Homo sapiens; A549, Nsclc; cell viability after 96 hours vs vehicle (DMSO)
Description: as §1, §4, §5

K562 = assay: Tumor cell growth inhibition, Trypan blue exclusion, K562; settings: Homo sapiens; K562, Cml; cell viability after 96 hours vs vehicle (DMSO)
Description: as §1, §4, §5

H157 = assay: Tumor cell growth inhibition, Trypan blue exclusion, H157; settings: Homo sapiens, NCI-H157; H157, Nsclc; cell viability after 96 hours vs vehicle (DMSO)
Description: as §1, §4, §5

Cem/C2 = assay: Tumor cell growth inhibition, Trypan blue exclusion, Cem/C2; settings: Homo sapiens; Cem/C2, Resistant Leukemic; cell viability after 96 hours vs vehicle (DMSO)
Description: as §1, §4, §5

CEM [1] = assay: Tumor cell growth inhibition, Trypan blue exclusion, CEM; settings: Homo sapiens, CCRF-CEM, Leukemic, cell viability after 96 hours vs vehicle (DMSO)
Description: as §1, §4, §5

HCT-116 = assay: Tumor cell growth inhibition, Trypan blue exclusion, HCT-116; settings: Homo sapiens; HCT-116, Colo-Rectal; cell viability after 96 hours vs vehicle (DMSO)
Description: as §1, §4, §5

SK-MEL-28 = assay: Tumor cell growth inhibition, Trypan blue exclusion, SK-MEL-28; settings: Homo sapiens; SK-MEL-28, Melanoma; cell viability after 96 hours vs vehicle (DMSO)
Description: as §1, §4, §5

SW480 = assay: Tumor cell growth inhibition, Trypan blue exclusion, SW480; settings: Homo sapiens; SW480, Colo-Rectal; cell viability after 96 hours vs vehicle (DMSO)
Description: as §1, §4, §5

N417 = assay: Tumor cell growth inhibition, Trypan blue exclusion, N417; settings: N417, Sclc; cell viability after 96 hours vs vehicle (DMSO)
Description: as §1, §4, §5

T47D = assay: Tumor cell growth inhibition, Trypan blue exclusion, T47D; settings: Homo sapiens, Breast (Er+), cell viability after 96 hours vs vehicle (DMSO)
Description: as §1, §4, §5

DLD-1 = assay: Tumor cell growth inhibition, Trypan blue exclusion, DLD-1; settings: Homo sapiens; DLD-1, Colo-Rectal; cell viability after 96 hours vs vehicle (DMSO)
Description: as §1, §4, §5

RF1 = assay: Tumor cell growth inhibition, Trypan blue exclusion, RF1; settings: RF1, Gastric; cell viability after 96 hours vs vehicle (DMSO)
Description: as §1, §4, §5

H187 = assay: Tumor cell growth inhibition, Trypan blue exclusion, H187; settings: Homo sapiens, NCI-H187; H187, Sclc; cell viability after 96 hours vs vehicle (DMSO)
Description: as §1, §4, §5

RF48 = assay: Tumor cell growth inhibition, Trypan blue exclusion, RF48; settings: RF48, Gastric; cell viability after 96 hours vs vehicle (DMSO)
Description: as §1, §4, §5

MIA-PACA2 = assay: Tumor cell growth inhibition, Trypan blue exclusion, MIA-PACA2; settings: Homo sapiens, MIA PaCa-2; MIA-PACA2, Pancreatic; cell viability after 96 hours vs vehicle (DMSO)
Description: as §1, §4, §5

LNCAP = assay: Tumor cell growth inhibition, Trypan blue exclusion, LNCAP; settings: Homo sapiens, Prostate (Ar+), cell viability after 96 hours vs vehicle (DMSO)
Description: as §1, §4, §5

MOLT-4 = assay: Tumor cell growth inhibition, Trypan blue exclusion, MOLT-4; settings: Homo sapiens; MOLT-4, T-Lymphoblastic: All; cell viability after 96 hours vs vehicle (DMSO)
Description: as §1, §4, §5

Sk-OV-3 = assay: Tumor cell growth inhibition, Trypan blue exclusion, Sk-OV-3; settings: Homo sapiens; Sk-OV-3, Ovarian; cell viability after 96 hours vs vehicle (DMSO)
Description: as §1, §4, §5

MCF-7 = assay: Tumor cell growth inhibition, Trypan blue exclusion, MCF-7; settings: Homo sapiens, MCF7; MCF-7, Breast (Er+); cell viability after 96 hours vs vehicle (DMSO)
Description: as §1, §4, §5

CEM [2] = assay: Tumor cell growth inhibition, Trypan blue exclusion, Cem (second listing); settings: Homo sapiens, Leukemic (second listing, parent of Cem/C2), cell viability after 96 hours vs vehicle (DMSO)
Description: as §1, §4, §5

U87 = assay: Tumor cell growth inhibition, Trypan blue exclusion, U87; settings: Homo sapiens, U-87 MG; U87, Glioblastoma; cell viability after 96 hours vs vehicle (DMSO)
Description: as §1, §4, §5

2008 = assay: Tumor cell growth inhibition, Trypan blue exclusion, 2008; settings: 2008, Ovarian; cell viability after 96 hours vs vehicle (DMSO)
Description: as §1, §4, §5

Mes-Sa = assay: Tumor cell growth inhibition, Trypan blue exclusion, Mes-Sa; settings: Homo sapiens, Sarcoma, cell viability after 96 hours vs vehicle (DMSO)
Description: as §1, §4, §5

Mes-Sa/Dx5 = assay: Tumor cell growth inhibition, Trypan blue exclusion, Mes-Sa/Dx5; settings: Homo sapiens; Mes-Sa/Dx5, Resistant Sarcoma; cell viability after 96 hours vs vehicle (DMSO)
Description: as §1, §4, §5

CAKI-2 = assay: Tumor cell growth inhibition, Trypan blue exclusion, CAKI-2; settings: Homo sapiens; CAKI-2, Renal; cell viability after 96 hours vs vehicle (DMSO)
Description: as §1, §4, §5

COLO-320 = assay: Tumor cell growth inhibition, Trypan blue exclusion, COLO-320; settings: Homo sapiens; COLO-320, Colo-Rectal; cell viability after 96 hours vs vehicle (DMSO)
Description: as §1, §4, §5

Raji = assay: Tumor cell growth inhibition, Trypan blue exclusion, Raji; settings: Homo sapiens, Burkitt's Lymphoma (B-Cell), cell viability after 96 hours vs vehicle (DMSO)
Description: as §1, §4, §5

[3] = DU-145 cells, Table 7, read-out: DU-145 GI50
[4] = DU-145, DU145, Prostate (Ar−), read-out: GI50

In the case of `COc1cc(OC)c(/C=C/S(=O)(=O)Cc2ccc(OC)c(OS(=O)(=O)c3ccc(C)cc3)c2)c(OC)c1` [(E)-5-((2,4,6-trimethoxystyrylsulfonyl)methyl)-2-methoxyphenyl 4-methylbenzenesulfonate], the GI50 (DU145; [3]) is reported as > 1000 nM.

With `COc1cc(OC)c(/C=C/S(=O)(=O)Cc2ccc(OC)c(OCCCN3CCOCC3)c2)c(OC)c1` [(E)-4-(3-(5-((2,4,6-trimethoxystyrylsulfonyl)methyl)-2-methoxyphenoxy)propyl)morpholine] the GI50 (DU145; [3]) was > 10000 nM.

`COc1cc(OC)c(/C=C/S(=O)(=O)Cc2ccc(OC)c(O)c2)c(OC)c1` [Example 1, (E)-5-((2,4,6-trimethoxystyrylsulfonyl)methyl)-2-methoxyphenol] showed a GI50 (DU145; [4]) of 5 nM, a GI50 (2008/17/4) of 6 nM and a GI50 (Namalwa) of 3 nM. For the same compound, the GI50 (PC-3) was 5 nM, the GI50 (HCT-15) was 7 nM and the GI50 (Daudi) was 3 nM. The GI50 (AGS) was 5 nM, the GI50 (OV-CAR-3) was 30 nM and the GI50 (BT20) was 80 nM. For the same compound, the GI50 (A549) was 10 nM, the GI50 (K562) was 4 nM and the GI50 (H157) was 7 nM. The GI50 (Cem/C2) was 3 nM, the GI50 (CEM [1]) was 4 nM and the GI50 (HCT-116) was 6 nM. For the same compound, the GI50 (SK-MEL-28) was 7 nM, the GI50 (SW480) was 5 nM and the GI50 (N417) was 3 nM. The GI50 (T47D) was 10 nM, the GI50 (DLD-1) was 7 nM and the GI50 (RF1) was 3 nM. For the same compound, the GI50 (H187) was 3 nM, the GI50 (RF48) was 1 nM and the GI50 (MIA-PACA2) was 3 nM. The GI50 (LNCAP) was 10 nM, the GI50 (MOLT-4) was 3 nM and the GI50 (Sk-OV-3) was 4 nM. The GI50 (MCF-7) was 10 nM, the GI50 (CEM [2]) was 4 nM and the GI50 (U87) was 7 nM. The GI50 2008 was 5 nM, the GI50 (Mes-Sa) was 5 nM and the GI50 (Mes-Sa/Dx5) was 5 nM. The GI50 (CAKI-2) was 6 nM, the GI50 (COLO-320) was 3 nM and the GI50 (Raji) was 1 nM.

In the case of `COc1cc(OC)c(/C=C/S(=O)(=O)Cc2ccc(OC)c(OP(=O)(O)O)c2)c(OC)c1` [Example 5, (E)-5-((2,4,6-trimethoxystyrylsulfonyl)methyl)-2-methoxyphenyl dihydrogen phosphate, disodium salt], the GI50 (DU145; [4]) is reported as 5 nM, the GI50 (HCT-15) is reported as 12 nM and the GI50 (AGS) is reported as 9 nM. The GI50 (BT20) was 8 nM, the GI50 (A549) was 20 nM and the GI50 (H157) was 12 nM. It also gave a GI50 (SK-MEL-28) of 12 nM, a GI50 (N417) of 4 nM and a GI50 (DLD-1) of 12 nM. For the same compound, the GI50 (MIA-PACA2) was 4 nM and the GI50 (U87) was 9 nM.

`COc1cc(OC)c(/C=C/S(=O)(=O)Cc2ccc(OC)c(OC(=O)CN(C)C)c2)c(OC)c1` [(E)-5-((2,4,6-trimethoxystyrylsulfonyl)methyl)-2-methoxyphenyl 2-(dimethylamino)acetate] gave a GI50 (DU145; [3]) of 4 to 10 nM.

Reference: patent US7932242B2, “Substituted phenoxy-and phenylthio-derivatives for treating proliferative disorders” (Temple University - Of The Commonwealth System of Higher …, priority 2004, dated 2011)
